US20240060138A1, “BREAST CANCER-RESPONSE PREDICTION SUBTYPES” (The Regents of The University of California, priority 2022, published 2024)

System: high-risk stage II and III early breast cancer
Experiment: I-SPY2 neoadjuvant platform trial: pCR rate by arm within receptor or response-predictive subtype
Assay type: in vivo, women
Excerpt: I-SPY2 is an ongoing, open-label, adaptive, randomized phase II, multicenter trial of neoadjuvant therapy for early-stage breast cancer (NCT01042379; IND 105139). It is a platform trial evaluating multiple investigational arms in parallel against a common standard of care control arm. The primary endpoint is pCR (ypT0/is, ypN0), defined as the absence of invasive cancer in the breast and regional nodes at the time of surgery. As I-SPY2 is modified intent-to-treat, patients receiving any dose of study therapy are considered evaluable; those who switch to non-protocol therapy, progress, forgo surgery, or withdraw are deemed ‘non-pCR’. Secondary endpoints include residual cancer burden (RCB) and event-free and distant relapse-free survival (EFS and DRFS) (Symmans et al., 2007)
Assessments at screening establish eligibility and classify participants into subtypes defined by hormone receptor (HR) status, HER2, and 70-gene signature (MammaPrint®) status (Cardoso et al., 2016; Piccart et al., 2021). Adaptive randomization in I-SPY2 preferentially assigns patients to trial arms according to continuously updated Bayesian probabilities of pCR rates within each biomarker signature; 20% of patients are randomly assigned to the control arm (Berry, 2011). […] An arm can be dropped for futility if the predicted probability of success in a future 300-patient, 1:1 randomized, phase 3 trial drops below 10%, or graduate for efficacy if the probability of success reaches 85% or greater in any biomarker signature. The clinical control arm for the efficacy analysis uses patients randomized throughout the entire trial. […] During the design of each new experimental arm the investigators together with the pharmaceutical sponsor decide in which of the 10 a priori defined biomarker signatures the drug will be tested. Upon entry to the trial, participants are dichotomized into hormone receptor (HR) negative versus positive, HER2 positive versus negative, and MammaPrint High1 [MP1] versus High2 [MP2] status.
This correlative study involved 987 women with high-risk stage II and III early breast cancer who were enrolled in 10 arms of I-SPY2: the first 9 experimental arms that completed evaluation and the control arm as shown in the schema of FIG. 1A. […] For HER2+ patients, N was administered instead of H, whereas M and trebananib were administered in addition to H. Dose reductions and toxicity management were specified in the protocol. Adverse events were collected according to the NCI Common Terminology Criteria for Adverse Events (CTCAE) version 4.0. After completion of AC, patients underwent lumpectomy or mastectomy and nodal sampling, with choice of surgery at the discretion of the treating surgeon. Detailed descriptions of the design, eligibility, and efficacy of these 9 experimental arms of the I-SPY2 trial have been reported previously (Chien et al., 2019; Clark et al., 2021; Nanda et al., 2020; Park et al., 2016; Pusztai et al., 2021; Rugo et al., 2016).
A major goal of a response-predictive schema is to increase the pCR rate in the population and to maximize the probability of pCR for an individual patient (R2).

NC1(c2ccc(-c3nc4ccn5c(=O)[nH]nc5c4cc3-c3ccccc3)cc2)CCC1 [MK2206, 8-[4-(1-aminocyclobutyl)phenyl]-9-phenyl-2H-[1,2,4]triazolo[3,4-f][1,6]naphthyridin-3-one]
pCR rate (HER2+/BP-HER2 or BP-Basal patients (RPS-5)): 48% | pCR rate (HER2+/BP-Luminal class (RPS-5)): 60% | pCR rate (HER2-/Immune-/DRD- (RPS-5)): 20% | pCR rate (RPS-7 S2: HER2+/BP Luminal): 60% | pCR rate (RPS-7 S6: HER2=0/Immune-/DRD-): 20% | pCR rate (RPS-7 S7: HR+HER2low/Immune-DRD-): 20%

veliparib/carboplatin [VC]
pCR rate (HER2-/Immune-/DRD+ (RPS-5)): 60% | pCR rate (RPS-7 S5: HER2=0.or.low/Immune-/DRD+): 60% | pCR rate (TN, DRD+ patients): 75% | pCR rate (TN, Immune+/DRD+ class): 74% | pCR rate (TN, Immune-/DRD+ class): 80%

pembrolizumab
pCR rate (HER2-/Immune+ (RPS-5)): 79% | pCR rate (HR+HER2- receptor subtype): 30% | pCR rate (RPS-7 S3: HER2=0.or.low/Immune+): 79% | pCR rate (TN receptor subtype): 66% | pCR rate (TN, Immune+ patients): 89% | pCR rate (TN, Immune+/DRD+ class): 92% | pCR rate (TN, Immune+/DRD- class): 80% | pCR rate (TN, Immune-/DRD+ class): 33%

ganitumab
pCR rate (RPS-7 S4: HR-/HER2low/Immune-/DRD-): 40%

CCOc1cc2ncc(C#N)c(Nc3ccc(OCc4ccccn4)c(Cl)c3)c2cc1NC(=O)/C=C/CN(C)C [N, neratinib]
pCR rate (RPS-7 S6: HER2=0/Immune-/DRD-): 20%

pertuzumab
pCR rate (HER2+/BP-Luminal class (RPS-5)): 8%
